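Five compound concentrations were applied to cells in 96-well plates for 48 hours; endpoints were derived by simple linear interpolation of the resulting dose-response curve. GI50 marks 50% less growth. At the TGI there is no net growth.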
Columns and labels:
Assay in all cases: inhibition of tumour cell growth, NCI panel, 48 h
M14 melanoma = test system: M14 melanoma
786-0 renal = test system: 786-0 renal
U251 CNS = test system: U251 CNS
MCF7 breast = test system: MCF7 breast
NCI-H23 lung = test system: NCI-H23 lung
DU-145 prostate = test system: DU-145 prostate
PC-3 prostate = test system: PC-3 prostate
SF-295 CNS = test system: SF-295 CNS
SW-620 colon = test system: SW-620 colon
NCI-H226 lung = test system: NCI-H226 lung

SMILES	TGI (M14 melanoma)	TGI (786-0 renal)	TGI (U251 CNS)	TGI (MCF7 breast)	TGI (NCI-H23 lung)	TGI (DU-145 prostate)	TGI (PC-3 prostate)	TGI (SF-295 CNS)	TGI (SW-620 colon)	TGI (NCI-H226 lung)	GI50 (DU-145 prostate)
C=C1CC2[C@H](C)C(=O)CCC2(C)C2=C1C1CCC(C(C)CCC(=C)C(C)C(=O)O)C1(C)CC2=O (stereo partly specified)	> 100 µM	40.1 µM	> 100 µM	> 100 µM	> 100 µM	> 100 µM	> 100 µM	> 100 µM	> 100 µM	> 100 µM	–
COc1ccccc1NC(=S)N/N=C/c1cccc(C)n1	9.43 µM	96.9 µM	> 87.1 µM	> 100 µM	> 100 µM	> 100 µM	> 100 µM	> 100 µM	> 100 µM	37.3 µM	–
CC[C@@]1(O)C(=O)OCc2c1cc1n(c2=O)Cc2c-1nc1ccccc1c2/C=N\NC(=O)C(N)Cc1c[nH]c2ccccc12 (stereo partly specified)	8.77 µM	> 21.7 µM	5.16 µM	> 55.7 µM	5.42 µM	> 100 µM	> 100 µM	4.76 µM	> 100 µM	11.9 µM	–
Cc1ccccc1NC(=O)Cc1csc(N=Nc2c(O)[nH]c3ccccc23)n1	> 100 µM	> 100 µM	> 1 µM	> 100 µM	> 100 µM	> 100 µM	37.2 µM	38 µM	> 1 µM	> 100 µM	–
CN(C)CCNC(=O)c1c(O)ccc2c1c1c(n2CCc2ccccc2)C(=O)c2ccccc2C1=O	3.47 µM	11.3 µM	13.9 µM	12.1 µM	28.8 µM	20.9 µM	29.1 µM	15.9 µM	20.6 µM	35.2 µM	–
CCOC(=O)C(C/C=C/CO)N(C)C(=O)OC(C)(C)C (stereo unspecified)	> 100 µM	> 100 µM	> 100 µM	> 100 µM	> 100 µM	> 100 µM	> 100 µM	> 100 µM	> 100 µM	> 100 µM	–
Cc1ccc(NC(=O)CC(=O)n2nc(C)c(N=Nc3cccc(C)c3)c2C)cc1	> 100 µM	> 100 µM	> 100 µM	> 100 µM	> 100 µM	> 100 µM	> 100 µM	> 100 µM	> 100 µM	> 100 µM	–
CN(C)CCCNC(=O)c1cn2c(ccc3sc4ccccc4c(=O)c32)n1	28.1 µM	8.08 µM	3.22 µM	8.48 µM	28.4 µM	25 µM	9.43 µM	17.4 µM	3.15 µM	36.1 µM	–
Cc1ccc(/C=C2/N=C(N/N=C\c3ccccc3)NC2=O)cc1	85.7 µM	55.6 µM	89.6 µM	> 100 µM	> 100 µM	> 100 µM	> 100 µM	> 100 µM	> 100 µM	> 100 µM	–
N#Cc1nc(-c2cccc(-c3nc(C#N)c(N)o3)n2)oc1N	> 100 µM	> 100 µM	> 100 µM	> 100 µM	> 100 µM	> 100 µM	> 100 µM	> 100 µM	> 100 µM	> 100 µM	–
CC(NC(=O)C(Cc1ccc(OC(=O)c2ccccc2)cc1)NC(=O)OC(C)(C)C)C(=O)NCC(=O)NC(Cc1ccccc1)C(=O)NN (stereo unspecified)	> 100 µM	> 100 µM	> 100 µM	> 100 µM	> 100 µM	> 100 µM	> 100 µM	> 100 µM	> 100 µM	> 100 µM	–
Cc1ccc(S[C@@H](C)[C@@](O)(C(N)=O)c2ccccc2)cc1	> 100 µM	> 100 µM	> 100 µM	> 100 µM	> 100 µM	> 100 µM	> 100 µM	41.9 µM	> 100 µM	> 100 µM	–
CC/C(=C\c1ccc(OC)cc1)c1ccc(OC)cc1	> 100 µM	> 100 µM	> 100 µM	> 100 µM	> 100 µM	> 100 µM	> 100 µM	> 100 µM	> 100 µM	> 100 µM	–
CCOC(=O)C1=C(C)N(Cc2ccccc2)C2(O)C=CC(=O)C3=C(O)c4ccccc4C(=O)C312 (stereo unspecified)	16.3 µM	26.2 µM	38.5 µM	3.44 µM	26.7 µM	38.3 µM	> 100 µM	31.4 µM	28.2 µM	54.4 µM	–
O=C(N/N=C\c1ccc([N+](=O)[O-])s1)c1ccncc1	25.2 µM	48.8 µM	> 63.8 µM	9.96 µM	38.4 µM	79.3 µM	> 76.8 µM	44.5 µM	> 45.4 µM	17.7 µM	–
NS(=O)(=O)c1ccc(N=Nc2ccc(O)c(C(=O)O)c2)cc1	> 100 µM	> 100 µM	> 100 µM	> 100 µM	> 100 µM	> 100 µM	> 100 µM	> 100 µM	> 100 µM	> 100 µM	–
CCOc1cc2c(cc1O)C(N)C[C@@H]1[C@@H]2CC[C@]2(C)[C@@H](O)CC[C@@H]12 (stereo partly specified)	98.4 µM	> 100 µM	> 100 µM	> 100 µM	> 100 µM	> 100 µM	> 100 µM	> 100 µM	> 100 µM	> 100 µM	> 100 µM
CCOC(=O)CCC(NC(=O)c1ccc(Nc2nc3ccccc3nc2C(=O)OCC)cc1)C(=O)OCC (stereo unspecified)	> 100 µM	3.46 µM	9.66 µM	> 79 µM	17.8 µM	> 35.8 µM	> 100 µM	23 µM	49.9 µM	12.2 µM	–
CC/C(N)=N\NC(=O)OC(C)(C)C	> 100 µM	> 100 µM	> 100 µM	> 100 µM	> 100 µM	> 100 µM	> 100 µM	> 100 µM	> 100 µM	> 100 µM	–
CN1CCN([C@H]2C[C@H]3[C@@H]4CC=C5C[C@@H](O)CC[C@]5(C)[C@H]4CC[C@]3(C)[C@H]2O)CC1	33.9 µM	32.1 µM	32.8 µM	> 63.2 µM	> 100 µM	> 100 µM	> 86.6 µM	> 100 µM	49.7 µM	> 100 µM	–
O=S(=O)(O)c1cc(S(=O)(=O)O)c2c(N=Nc3ccc(N=Nc4ccccc4)cc3)c(O)ccc2c1	> 100 µM	> 100 µM	> 100 µM	> 100 µM	> 100 µM	> 100 µM	> 100 µM	> 100 µM	> 100 µM	> 100 µM	–
CC1(C)CC(=O)C2=C(C1)OC1(CC2c2ccc(Cl)cc2)CC(c2ccc(Cl)cc2)C2=C(CC(C)(C)CC2=O)O1 (stereo unspecified)	> 52.1 µM	35.9 µM	> 57.6 µM	> 100 µM	34.9 µM	46.4 µM	> 65.9 µM	> 53.2 µM	61.2 µM	42.1 µM	–
O=C1C(c2c(O)[nH]c3ccc(S(=O)(=O)NCCO)cc23)=Nc2ccccc21	> 100 µM	28.9 µM	12.9 µM	6.53 µM	> 100 µM	46.8 µM	54.3 µM	> 100 µM	> 100 µM	> 100 µM	–
O=P(O)(O)CN1CCNCCN(CP(=O)(O)O)CC1	> 100 µM	> 100 µM	> 100 µM	> 100 µM	> 100 µM	> 100 µM	> 100 µM	> 100 µM	> 100 µM	> 86.8 µM	–
O=[N+]([O-])C(C=C(n1nnc2ccccc21)n1nnc2ccccc21)=C(n1nnc2ccccc21)n1nnc2ccccc21	> 100 µM	> 100 µM	> 100 µM	> 100 µM	> 100 µM	> 100 µM	> 100 µM	> 100 µM	> 100 µM	> 100 µM	–
CC(=O)c1sc2[n+](c1C)C(=O)/C(=C\c1ccccc1Cl)S2	40 µM	38.2 µM	30.5 µM	29.8 µM	38.5 µM	33.6 µM	49.9 µM	33 µM	31.1 µM	30.9 µM	–
C=CCNC(=S)/N=C/C(C(=O)Nc1ccccc1C)=C(\C)O	> 100 µM	> 100 µM	> 100 µM	> 100 µM	> 100 µM	> 100 µM	> 100 µM	> 100 µM	> 100 µM	> 100 µM	–
O=C1C=C(N2CCN(CCOCCO)CC2)C(=O)c2c(O)ccc(O)c21	3.1 µM	21.7 µM	15.9 µM	2.98 µM	4.67 µM	10.5 µM	10.7 µM	27.8 µM	6.48 µM	35.5 µM	–
COc1ccc(CNc2nc3ccccc3nc2C(=O)O)cc1	> 100 µM	> 100 µM	> 100 µM	> 100 µM	> 100 µM	> 100 µM	> 100 µM	> 100 µM	> 100 µM	> 100 µM	–
C=C1C(=O)OC2C3OC(C)(CCC(O)C3COC(C)=O)CC(OC(=O)/C(=C/C)COC(C)=O)C12 (stereo unspecified)	1.01 µM	0.394 µM	2.88 µM	0.533 µM	2.93 µM	2.04 µM	4.49 µM	22.3 µM	0.261 µM	8.4 µM	–

— PubChem BioAssay (NCI)
